The nature of this assay: Inhibition of Pseudomonas aeruginosa DDAH.
`O=C(Cn1cc(C=C2C(=O)NC(=S)NC2=O)c2ccccc21)NCc1ccco1` yielded a concentration for half-maximal inhibition (IC50) of 6.4 µM.

The molecule `O=C(Cn1cc(/C=C2\C(=O)NC(=S)N(c3ccccc3)C2=O)c2ccccc21)NCc1ccco1` came in with an IC50 of 16.9 µM.

`COc1ccc(N2C(=O)/C(=C/c3c[nH]c4ccccc34)C(=O)NC2=S)cc1` came in with a concentration for half-maximal inhibition (IC50) of 2 µM.

As usually defined, the IC50 is the concentration that gives 50% inhibition.

For the origin of these results see ChEMBL document CHEMBL1149543, “Discovery of inhibitors of the pentein superfamily protein dimethylarginine dimethylaminohydrolase (DDAH), by virtual screening and hit analysis” (Bioorg Med Chem Lett, 2007).
